Reference: patent US20250269044A1, “PSMA-TARGETED DENDRIMER NANOPLATFORM FOR CANCER DETECTION AND THERAPY” (Washington State University, priority 2024, published 2025)
Converted amounts (≈) assume the structure as drawn. “Also recorded” adds a separate entry of the source.

Columns and labels:
PC3-PIP PSMA (+) cells = assay: CellTiter-Glo Luminescent Cell Viability assay; format: cell-based; settings: Homo sapiens; for viability at 1 µg/mL: 1 μg/ml; for viability at 1 µg/mL / viability at 10 µg/mL / viability at 1000 µg/mL / EC50: 72 h; for viability at 1 µg/mL / viability at 10 µg/mL / viability at 1000 µg/mL: read-out: viable cells; for viability at 10 µg/mL: 10 μg/ml; for viability at 1000 µg/mL: 1000 μg/ml; for IC50: 72 H, equivalent drug bases, read-out: IC50 anti-proliferative activity; for EC50: nonlinear regression with variable slope
Description: Cell viability: 2.5×10^4 PC3-PIP PSMA (+) cells were allowed to adhere to a 96 well plate overnight. The following day, cell media was changed and the PD-CTT1298-Cabo conjugate, at the concentrations tested, was added along with cabozantinib (Cabo) and hydoxy-cabozantinib (Cabo-OH). The cells were allowed to incubate at 37°° C. for 72H. Following incubation, the luminescence of the viable cells was measured using the CellTiter-Glo® Luminescent Cell Viability assay according to manufacturer's instructions. Cell viability (%) was calculated using the luminescence values obtained from the controls used in the experiment. The experiment was performed in triplicate.
Cell viability. 2.5×10^4 PC3-PIP PSMA (+) cells were allowed to adhere to a 96 well plate overnight. The following day, cell media was changed and the PSMA-2DG-D-Cabo dendrimer, at the concentrations tested, were added along with Cabozantinib (Cabo) and Cabozantinib-7-hydoxy derivative (Cabo-OH). The cells were allowed to incubate at 37° C. for 72 h. Following incubation, the luminescence of the viable cells was measured using the CellTiter-Glo® Luminescent Cell Viability assay (Promega, G7570) according to manufacturer's instructions. The luminescence data was collected using a plate reader. Cell viability (%) was calculated using the luminescence values obtained from the controls used in the experiment. The blank cells served as a positive (+) control while sterile 10% DMSO (Fisher Scientific, BP231) served as the negative (−) control. The experiment was performed in triplicate. A similar experiment was carried out with 2DG-D dendrimer at different concentrations (0.1, 1, 10, 100 and 1000 μg/ml) following the same protocol. The experiments were performed in triplicate, with proper controls. Statistical analyses were performed using a TWO-WAY ANOVA T-Test with unequal variances.

Aqueous solubility = format: physicochemical
c-Met = c-Met (Homo sapiens, UniProt P08581); assay: c-Met inhibition activities (IC50); format: biochemical; settings: read-out: c-Met inhibitory activity IC50
Chain of c-Met (P08581 25-1390): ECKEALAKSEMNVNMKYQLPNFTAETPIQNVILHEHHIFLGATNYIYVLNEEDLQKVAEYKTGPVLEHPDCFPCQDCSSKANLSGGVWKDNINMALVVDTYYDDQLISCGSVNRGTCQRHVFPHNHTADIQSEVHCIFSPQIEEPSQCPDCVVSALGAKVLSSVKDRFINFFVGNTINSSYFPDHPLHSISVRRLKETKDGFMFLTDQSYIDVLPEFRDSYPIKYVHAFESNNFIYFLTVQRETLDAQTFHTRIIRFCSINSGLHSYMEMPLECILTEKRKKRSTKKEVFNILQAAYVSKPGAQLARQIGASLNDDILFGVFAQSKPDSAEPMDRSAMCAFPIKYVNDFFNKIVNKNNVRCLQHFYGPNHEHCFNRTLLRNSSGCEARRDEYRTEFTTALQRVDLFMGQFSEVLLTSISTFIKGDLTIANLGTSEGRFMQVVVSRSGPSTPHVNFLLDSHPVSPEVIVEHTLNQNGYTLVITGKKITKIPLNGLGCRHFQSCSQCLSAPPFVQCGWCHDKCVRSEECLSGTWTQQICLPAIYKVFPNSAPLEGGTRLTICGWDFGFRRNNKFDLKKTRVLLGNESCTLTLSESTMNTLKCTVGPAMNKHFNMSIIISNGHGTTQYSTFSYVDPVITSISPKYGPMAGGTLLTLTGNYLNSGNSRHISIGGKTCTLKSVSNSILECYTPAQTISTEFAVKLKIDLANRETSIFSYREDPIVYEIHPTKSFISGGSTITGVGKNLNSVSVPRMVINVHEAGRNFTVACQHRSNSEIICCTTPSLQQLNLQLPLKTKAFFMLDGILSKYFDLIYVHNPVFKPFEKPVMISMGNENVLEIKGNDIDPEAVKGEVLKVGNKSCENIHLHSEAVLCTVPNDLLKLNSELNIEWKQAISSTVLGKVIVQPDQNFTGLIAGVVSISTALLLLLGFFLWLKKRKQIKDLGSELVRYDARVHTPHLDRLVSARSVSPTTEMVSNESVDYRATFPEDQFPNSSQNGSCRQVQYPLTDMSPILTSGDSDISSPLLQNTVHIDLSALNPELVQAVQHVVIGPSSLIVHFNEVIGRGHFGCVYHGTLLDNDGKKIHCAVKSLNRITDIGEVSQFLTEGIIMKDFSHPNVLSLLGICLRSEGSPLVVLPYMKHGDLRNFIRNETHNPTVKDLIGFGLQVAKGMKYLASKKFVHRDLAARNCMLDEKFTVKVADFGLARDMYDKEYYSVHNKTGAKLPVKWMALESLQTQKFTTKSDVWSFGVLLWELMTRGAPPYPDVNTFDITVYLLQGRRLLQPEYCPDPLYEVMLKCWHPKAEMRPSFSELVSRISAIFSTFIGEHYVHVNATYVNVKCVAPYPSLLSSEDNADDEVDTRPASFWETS

Compound | viability at 1 µg/mL (PC3-PIP PSMA (+) cells) [%] | viability at 10 µg/mL (PC3-PIP PSMA (+) cells) [%] | viability at 1000 µg/mL (PC3-PIP PSMA (+) cells) [%] | IC50 (PC3-PIP PSMA (+) cells) [µg/mL] | EC50 (PC3-PIP PSMA (+) cells) [µg/mL] | water solubility (in words) (Aqueous solubility) | IC50 (c-Met) [nM]
COc1cc2nccc(Oc3ccc(NC(=O)C4(C(=O)Nc5ccc(F)cc5)CC4)cc3)c2cc1OC [Cabo, cabozantinib] | 96.3 ± 4.58 | 69.2 ± 0.94 | 4.17 ± 0.53 | 24.8 ± 2.27 | 68 (≈ 136 µM) | poor aqueous solubility; also recorded: negligible solubility in water | 
COc1cc2c(Oc3ccc(NC(=O)C4(C(=O)Nc5ccc(F)cc5)CC4)cc3)ccnc2cc1O [Cabo-OH, hydoxy-cabozantinib] | 105 ± 6.38 | 106 ± 3.09 | 7.81 ± 0.24 | 77.3 ± 4.35 | 69.4 (≈ 142 µM) | poor aqueous solubility; also recorded: negligible solubility in water | 26.3
